Measurements from paper PMC4881381, “Subcellular Localization of Galloylated Catechins in Tea Plants [Camellia sinensis (L.) O. Kuntze] Assessed via Immunohistochemistry” (Frontiers in Plant Science, 2016).
pKd: −log10 of the molar value.

Target: T1, anti-galloylated catechin monoclonal antibody (mAb) P6C2
T1 construct: whole purified mAb (~150 kDa; 50 kDa heavy and 25 kDa light chains), biotinylated
Test: bio-layer interferometry (ForteBio Octet Red […], SSA biosensors); direct ELISA
Assay type: binding

Row | Compound | pKd
1 | O=C(O[C@@H]1Cc2c(O)cc(O)cc2O[C@@H]1c1ccc(O)c(O)c1)c1cc(O)c(O)c(O)c1 [ECG, (-)-epicatechin-3-gallate] | 6.71
2 | O=C(O[C@@H]1Cc2c(O)cc(O)cc2O[C@@H]1c1cc(O)c(O)c(O)c1)c1cc(O)c(O)c(O)c1 [EGCG, (-)-epigallocatechin-3-gallate] | 5.03
